Reference: patent US20120101099A1, “HISTONE DEACETYLASE INHIBITORS” (ANTHEM BIOSCIENCES PRIVATE LIMITED, priority 2009, published 2012)
Structures can show the parent of a compound that is named as a salt.

Experiments:
[1] = test system: human HDAC (Hela cells nuclear extract); assay: HDAC activity screening, Hela nuclear extract, Boc-Lys(Ac)-AMC substrate; format: biochemical; settings: Hela nuclear extract; for HDAC % Inhibition (1 μM): 1 μM compound; for HDAC % Inhibition (10 μM): 10 μM compound; for IC50: read-out: IC50 (50% HDAC inhibitory concentration), Table 2
Description: To study the human HDAC inhibition the in-house 96 well plate assay have been established using fluorescent substrate (Boc-Lys (Ac)-AMC Substrate). Hela cells nuclear extract have been used as enzyme source.
Assay was performed in 96-well black microplate and total volume of the assay was 100 μL. Hela nuclear extract was diluted HDAC assay buffer (final concentration of 3.0 μg/mL). Enzyme mixture was made of 10 μL of diluted enzyme and 30 μL of HDAC buffer. 40 μl of enzyme mixture followed by 10 μL of test compound (final concentration from 0.01 to 10 μM) or vehicle (control) was added to each well. The plate was pre-incubated at 37° C. for 10 minutes. The HDAC reaction was started by adding 50 μl of HDAC substrate Boc-Lys (Ac)-AMC (Anaspec, Inc Fremont, Calif., USA). The plate was incubated at 37° C. for 45 minutes. The reaction was stopped by adding 50 μL of Trypsin stop solution and plate further incubated at 37° C. for 15 minutes. Measuring the fluorescence at excitation wavelength of 360 nm and emission wavelength of 460 nm monitored the release of AMC. Buffer alone and substrate alone served as blank.

[2] = test system: A549; assay: Cell proliferation assay (MTT); format: cell-based; settings: Homo sapiens, A549; Table 1; MTT, 48 hours; read-out: Cell growth inhibition (GI50 in μM) A549
Description: (§1) Cells were seeded in a 96-well cell culture plates at a concentration of 10,000 cells per well and incubated at 37° C. in CO2 incubator.
(§2) Twenty-four hours later cells were treated with different concentrations (100, 10, 1, 0.1, and 0.01 μM) of compound dissolved in DMSO and incubated for 48 hours. For To measurement, 24 hours after seeding the cells, 20 μL of 3-(4.5-dimethyl-2- thiazolyl)-2,5-diphenyl-2H-tetrazolium (MTT) solution per well was added to the T0 plate and incubated for 3 hours at 37° C. in a CO2 incubator.
(§3) The plate containing cells and test compounds was treated similarly after 48 hours of incubation. After 3 hours of MTT addition, well contents were aspirated carefully followed by addition of 100 μL DMSO per well. Plates were agitated to ensure dissolution of the formazan crystals in DMSO and absorbance was read at 570 nm (A570). […] From the percentage growths a dose response curve was generated and GI50 values were interpolated from the growth curves.

[3] = test system: PA-1; assay: Cell proliferation assay (MTT); format: cell-based; settings: Homo sapiens, Table 1, MTT, 48 hours, read-out: Cell growth inhibition (GI50 in μM) PA-1
Description: as §1, §2, §3

[4] = test system: PC-3; assay: Cell proliferation assay (MTT); format: cell-based; settings: Homo sapiens, PC-3; Table 1; MTT, 48 hours; read-out: Cell growth inhibition (GI50 in μM) PC-3
Description: as §1, §2, §3

[5] = test system: HT-29; assay: Cell proliferation assay (MTT); format: cell-based; settings: Homo sapiens, HT-29; Table 1; MTT, 48 hours; read-out: Cell growth inhibition (GI50 in μM) HT-29
Description: as §1, §2, §3

[6] = test system: NCI-H460; assay: Cell proliferation assay (MTT); format: cell-based; settings: Homo sapiens, Table 1, MTT, 48 hours, read-out: Cell growth inhibition (GI50 in μM) NCI H460
Description: as §1, §2, §3

Row | IC50 [1] | GI50 [2] | GI50 [4] | GI50 [5] | SMILES | HDAC % Inhibition (1 μM) [1] | HDAC % Inhibition (10 μM) [1] | GI50 [3] | GI50 [6]
1 | 0.025 µM | 3.2 ± 1.4 µM | 18.5 ± 10.2 µM |  | CN(C)Cc1ccc(-c2cn(Cc3ccc(C(=O)NO)cc3)nn2)cc1 [Example 10, 4-[4-(4-Dimethylaminomethyl-phenyl)-[1,2,3]triazol-1-ylmethyl]-N-hydroxy-benzamide] | 96% | 100% | 0.1 ± 0.02 µM | 
2 |  |  | 1.7 ± 1.1 µM | 1.9 ± 1.8 µM | O=C(NO)c1ccc(Cn2cc(-c3ccccc3)nn2)cc1 [Example 2, N-Hydroxy-4-(4-phenyl-[1,2,3]triazol-1-ylmethyl)-benzamide] | 98% | 100% | 0.11 µM | 2.6 ± 2 µM
3 | 0.00733 µM |  |  |  | O=C(NO)c1ccc(Cn2cc(-c3ccc(CN4CCOCC4)cc3F)nn2)cc1 [Example 15, 4-[4-(2-Fluoro-4-morpholin-4-ylmethyl-phenyl)-[1,2,3]triazol-1-ylmethyl]-N-hydroxy-benzamide] |  |  |  | 
4 |  |  | > 100 µM | 16.3 µM | O=C(NO)c1ccc(Cn2cc(-c3ccc(-c4ccccc4)cc3)nn2)cc1 [Example 6, 4-(4-Biphenyl-4-yl-[1,2,3]triazol-1-ylmethyl)-N-hydroxy-benzamide] | 75% | 87% |  | > 100 µM
5 |  |  | 9.2 ± 9.5 µM | 13.3 ± 2.9 µM | O=C(NO)c1ccc(Cn2cc(-c3cccnc3)nn2)cc1 [Example 5, N-Hydroxy-4-(4-pyridin-3-yl-[1,2,3]triazol-1-ylmethyl)-benzamide] | 68% | 88% |  | 19 ± 1 µM
6 |  |  | 23.3 µM | 23.8 µM | O=C(NO)c1ccc(CNS(=O)(=O)Cn2cc(-c3ccccc3)nn2)cc1 [Example 34] | 91% | 99% |  | 19.9 µM
7 |  |  | 3.4 ± 0.4 µM | 5.2 ± 3.5 µM | O=C(NO)c1ccc(Cn2cc(-c3ccc(F)cc3)nn2)cc1 [Example 3, 4-[4-(4-Fluoro-phenyl)-[1,2,3]triazol-1-ylmethyl]-N-hydroxy-benzamide] | 84% | 96% |  | 6.5 ± 4.2 µM
8 |  |  | 4.6 ± 1.6 µM | 2.4 ± 0.5 µM | O=C(NO)c1ccc(Cn2cc(-c3ccccc3F)nn2)cc1 [Example 4, 4-[4-(2-Fluoro-phenyl)-[1,2,3]triazol-1-ylmethyl]-N-hydroxy-benzamide] | 88% | 94% |  | 3.2 ± 1.1 µM
9 |  |  | 2.4 ± 2.5 µM | 0.9 ± 0.8 µM | CN(C)c1ccc(-c2cn(Cc3ccc(C(=O)NO)cc3)nn2)cc1 [Example 1] | 92% | 94% | 0.01 µM | 1 ± 0.2 µM
10 |  |  | 2.6 ± 1.2 µM | 1.4 ± 0.5 µM | COc1ccc(-c2cn(Cc3ccc(C(=O)NO)cc3)nn2)cc1 [Example 7, N-Hydroxy-4-[4-(4-methoxy-phenyl)-[1,2,3]triazol-1-ylmethyl]-benzamide] | 90% | 94% |  | 3.1 ± 1.7 µM

Continued, compound first:

Row | SMILES | IC50 [1] | GI50 [2] | GI50 [4] | GI50 [5] | HDAC % Inhibition (1 μM) [1] | HDAC % Inhibition (10 μM) [1] | GI50 [3] | GI50 [6]
11 | O=C(NO)c1ccc(CNS(=O)(=O)Cn2cc(-c3cccnc3)nn2)cc1 [Example 33, N-Hydroxy-4-[(4-pyridin-3-yl-[1,2,3]triazol-1-ylmethanesulfonylamino)-methyl]-benzamide] |  |  |  |  | 63% | 92% |  | 
12 | O=C(NO)c1ccc(Cn2cc(-c3ccc(CCN4CCOCC4)cc3)nn2)cc1 [Example 12, N-Hydroxy-4-{4-[4-(2-morpholin-4-yl-ethyl)-phenyl]-[1,2,3]triazol-1-ylmethyl}-benzamide] | 0.0128 µM |  |  |  |  |  |  | 
13 | O=C(/C=C/c1cccc(Cn2cc(-c3ccc(CN4CCCC4)cc3)nn2)c1)NO [Example 26, N-Hydroxy-3-{3-[4-(4-pyrrolidin-1-ylmethyl-phenyl)-[1,2,3]triazol-1-ylmethyl]-phenyl}-acrylamide hydrochloride] | 0.001 µM | 0.9 ± 0.3 µM | 9.4 ± 6.2 µM |  | 99% | 99% | 0.03 µM | 
14 | CN(C)c1ccc(-c2cn(Cc3ccc(/C=C/C(=O)NO)cc3)nn2)cc1 [Example 17] |  |  | 4.4 µM | 0.38 ± 0.12 µM | 93% | 99% |  | 7.06 ± 6.98 µM
15 | COc1ccc(-c2cn(CS(=O)(=O)NCc3ccc(C(=O)NO)cc3)nn2)cc1 [Example 32, N-Hydroxy-4-{[4-(4-methoxy-phenyl)-[1,2,3]triazol-1-ylmethanesulfonylamino]-methyl}-benzamide] |  |  |  |  | 79% | 91% |  | 
16 | O=C(/C=C/c1ccc(Cn2cc(-c3ccccc3)nn2)cc1)NO [Example 19] |  |  |  | 0.2 µM | 98% | 101% |  | 3.38 µM
17 | Cc1ccc(-c2cn(CS(=O)(=O)NCc3ccc(C(=O)NO)cc3)nn2)cc1 [Example 28] |  |  |  |  | 84% | 96% |  | 
18 | O=C(NO)c1ccc(Cn2cc(-c3ccc(CN4CCCC4)cc3F)nn2)cc1 [Example 14, 4-[4-(2-Fluoro-4-pyrrolidin-l-ylmethyl-phenyl)-[1,2,3]triazol-1-ylmethyl]-N-hydroxy-benzamide] | 0.0134 µM |  |  |  |  |  |  | 
19 | CN(C)c1ccc(-c2cn(Cc3cccc(/C=C/C(=O)NO)c3)nn2)cc1 [Example 23, (E)-3-{3-[4-(4-Dimethylamino-phenyl)-[1,2,3]triazol-1-ylmethyl]-phenyl}-N-hydroxy-acrylamide] |  |  | 12.2 µM | 0.2 µM | 96% | 99% |  | 0.3 µM
20 | CN(C)c1ccc(-c2cn(CS(=O)(=O)NCc3ccc(C(=O)NO)cc3)nn2)cc1 [Example 31, 4-{[4-(4-Dimethylamino-phenyl)-[1,2,3]triazol-1-ylmethanesulfonylamino]-methyl}-N-hydroxy-benzamide] |  |  |  |  | 85% | 97% |  | 
21 | O=C(NO)c1ccc(CNS(=O)(=O)Cn2cc(-c3ccc(F)cc3)nn2)cc1 [Example 29, 4-{[4-(4-Fluoro-phenyl)-[1,2,3]triazol-1-ylmethanesulfonylamino)-methyl}-N-hydroxy-benzamide] |  |  |  |  | 87% | 98% |  | 
22 | O=C(/C=C/c1cccc(CNS(=O)(=O)Cn2cc(-c3ccccc3)nn2)c1)NO [Example 35, N-Hydroxy-3-{3-[(4-phenyl-[1,2,3]triazol-1-ylmethanesulfonylamino)-methyl]-phenyl}-acrylamide] |  |  | 47.7 µM | 19.3 µM | 67% | 92% |  | 20.4 µM
23 | O=C(/C=C/c1cccc(Cn2cc(-c3cccnc3)nn2)c1)NO [Example 24, N-Hydroxy-3-[3-(4-pyridin-3-yl-[1,2,3]triazol-1-ylmethyl)-phenyl]-acrylamide] |  |  |  | 0.48 µM | 96% | 101% |  | 10.7 µM
24 | O=C(NO)c1ccc(CNS(=O)(=O)Cn2cc(-c3ccccc3F)nn2)cc1 [Example 30, 4-{[4-(2-Fluoro-phenyl)-[1,2,3]triazol-1-ylmethanesulfonylamino]-methyl}-N-hydroxy-benzamide] |  |  |  |  | 92% | 99% |  | 
25 | O=C(/C=C/c1ccc(Cn2cc(-c3ccc(F)cc3)nn2)cc1)NO [Example 18] |  |  |  | > 100 µM | 98% | 100% |  | 2.21 µM
26 | O=C(/C=C/c1cccc(Cn2cc(-c3ccccc3)nn2)c1)NO [Example 22, (E)-N-Hydroxy-3-[3-(4-phenyl-[1,2, 3]triazol-1-ylmethyl)-phenyl]-acrylamide] |  |  | 0.6 ± 0.6 µM | 0.5 ± 0.4 µM | 92% | 96% | 0.01 µM | 0.1 ± 0.2 µM
